The results in this text go back to patent publication US8466177B2 (priority 2007, dated 2013).

Where two headings read alike, the source gives them in different places.

The EC50 is the concentration at which the effect is half-maximal. A high value points to weaker potency.

For one assay, the system named is A/Udorn/72, H3N2. It is filed as cell-based, influenza virus. Particulars: 50 nM.
The next assay concerns A/Udorn/72 (H3N2). The experiment in a line: microbe, parasite or virus in culture. It is filed as cell-based, influenza virus.
The next assay has as its system A/PR/8/34 (H1N1). The assay is described as follows: microbe, parasite or virus in culture. It is filed as cell-based. The note with it: Influenza A virus, MDCK.
Another assay relates to A/Aichi/68 (H3N2). The assay is described as follows: microbe, parasite or virus in culture. The note with it: Influenza A virus, H3N2, MDCK. In kind it is cell-based.
Another assay relates to B/Lee/40 (type B). The experiment in a line: microbe, parasite or virus in culture. In kind it is cell-based. The note with it: Influenza B virus, MDCK.
Assay [1] concerns influenza virus (A/Udorn/72, H3N2). In kind it is cell-based. The note with it: 10 μM.
Assay [2] has as its system recombinant influenza virus hemagglutinin (A/Wyoming/3/03). It is filed as biochemical. The note with it: 5 μM.

With `O=C1/C(=C/c2ccc(-c3ccc(F)cc3)o2)SC(=S)N1C1CCCCC1` [A1, (Z)-3-Cyclohexyl-5-{[5-(4-fluorophenyl)furan-2-yl]-methylene}-2-thioxothiazolidin-4-one], the “virus yield, cell cultures treated after inoculation” value in the assay on A/Udorn/72, H3N2 is listed as “decreased virus yield”. For the same compound, the EC50 with A/Udorn/72 (H3N2) was 400 pM; with A/Udorn/72 (H3N2) (Influenza A virus, H3N2, MDCK), no more than 400 pM; with A/PR/8/34 (H1N1), 600 pM; in the assay with A/Aichi/68 (H3N2) it was 1000 pM; with B/Lee/40 (type B), 1000 pM. Besides, the “effect on membrane fusion” value in assay [1] was “inhibitory effects”. In addition, the “effect on HA stability (trypsin digestion)” value in assay [2] is on record as “destabilization effects”.
As for `Cc1ccc(-c2ccc(/C=C3\SC(=S)N(C4CCCCCCC4)C3=O)o2)cc1` [A17, (Z)-3-cyclooctyl-5-{[(4-methylphenyl)furan-2-yl]methylene}-2-thioxothiazolidin-4-one], the “virus yield, cell cultures treated after inoculation” value in the assay on A/Udorn/72, H3N2 is recorded as “decreased virus yield”.
